Consider 18 molecules from patent publication US9604923B2 (H. LEE MOFFITT CANCER CENTER AND RESEARCH INSTITUTE, INC., priority 2006, dated 2017).

For data set [1], the target named is T1, STAT3 (Mus musculus, UniProt P42227). As to the kind of experiment: Inhibition of STAT3 dimerization, EMSA assay. Format: binding. Set-up: nuclear extracts were pre-incubated with compound for 30 minutes at room temperature prior to incubation with the radiolabeled probe; endogenous in cells; host or cells: nuclear extracts per the general EMSA method.
T1 sequence (P42227 2-770 limits assumed): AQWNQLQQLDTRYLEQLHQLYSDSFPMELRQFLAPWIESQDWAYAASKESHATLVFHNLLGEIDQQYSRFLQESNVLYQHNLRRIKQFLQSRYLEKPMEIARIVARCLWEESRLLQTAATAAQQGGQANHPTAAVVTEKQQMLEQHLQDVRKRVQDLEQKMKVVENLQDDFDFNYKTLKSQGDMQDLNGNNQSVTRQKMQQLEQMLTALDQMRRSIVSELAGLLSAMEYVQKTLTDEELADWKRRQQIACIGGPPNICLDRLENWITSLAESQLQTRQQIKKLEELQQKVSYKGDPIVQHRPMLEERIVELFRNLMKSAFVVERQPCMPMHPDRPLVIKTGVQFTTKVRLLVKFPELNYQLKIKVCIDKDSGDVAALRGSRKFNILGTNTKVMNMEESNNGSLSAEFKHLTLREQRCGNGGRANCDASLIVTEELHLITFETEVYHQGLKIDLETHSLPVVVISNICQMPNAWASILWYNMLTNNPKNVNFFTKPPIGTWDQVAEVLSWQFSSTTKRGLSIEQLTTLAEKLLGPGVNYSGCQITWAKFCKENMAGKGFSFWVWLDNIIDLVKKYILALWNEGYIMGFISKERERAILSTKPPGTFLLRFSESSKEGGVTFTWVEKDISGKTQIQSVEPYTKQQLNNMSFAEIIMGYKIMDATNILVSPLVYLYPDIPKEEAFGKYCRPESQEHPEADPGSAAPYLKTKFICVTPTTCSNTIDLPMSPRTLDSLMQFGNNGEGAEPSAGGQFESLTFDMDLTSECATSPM
Data set [2] has as its target T1, STAT3. Put plainly: Inhibition of STAT3 dimerization, EMSA assay. The format is binding. Set-up: endogenous in cells; host or cells: nuclear extracts per the general EMSA method. (In general: Mobility shift assays separate free from complexed probe on a gel.)
A further data set deals with T2, Stat3:3 (Mus musculus, UniProt P42227).
T2 construct: endogenous in cells; host or cells: NIH3T3/v-Src or EGF-stimulated NIH3T3/hEGFR mouse fibroblasts, nuclear extracts
T2 sequence (P42227 2-770 limits assumed): as above
Put plainly: STATs DNA-binding activity in vitro, EMSA with hSIE probe. The settings on record: for IC50: Table 4, read-out: IC50 values for the inhibition of STATs DNA-binding activity in vitro, Stat3:3.

In another data set the target is T3, Stat1:3 (Mus musculus, UniProt P42227).
T3 construct: endogenous in cells; host or cells: EGF-stimulated NIH3T3/hEGFR mouse fibroblasts, nuclear extracts
T3 sequence (P42227 2-770 limits assumed): as above
The description is as above. The note with it: Table 4; read-out: IC50 values for the inhibition of STATs DNA-binding activity in vitro, Stat1:3.

For the next data set, the target named is T4, Stat1:1 (Mus musculus, UniProt P42225).
T4 construct: endogenous in cells; host or cells: EGF-stimulated NIH3T3/hEGFR mouse fibroblasts, nuclear extracts
T4 sequence (P42225 2-749 limits assumed): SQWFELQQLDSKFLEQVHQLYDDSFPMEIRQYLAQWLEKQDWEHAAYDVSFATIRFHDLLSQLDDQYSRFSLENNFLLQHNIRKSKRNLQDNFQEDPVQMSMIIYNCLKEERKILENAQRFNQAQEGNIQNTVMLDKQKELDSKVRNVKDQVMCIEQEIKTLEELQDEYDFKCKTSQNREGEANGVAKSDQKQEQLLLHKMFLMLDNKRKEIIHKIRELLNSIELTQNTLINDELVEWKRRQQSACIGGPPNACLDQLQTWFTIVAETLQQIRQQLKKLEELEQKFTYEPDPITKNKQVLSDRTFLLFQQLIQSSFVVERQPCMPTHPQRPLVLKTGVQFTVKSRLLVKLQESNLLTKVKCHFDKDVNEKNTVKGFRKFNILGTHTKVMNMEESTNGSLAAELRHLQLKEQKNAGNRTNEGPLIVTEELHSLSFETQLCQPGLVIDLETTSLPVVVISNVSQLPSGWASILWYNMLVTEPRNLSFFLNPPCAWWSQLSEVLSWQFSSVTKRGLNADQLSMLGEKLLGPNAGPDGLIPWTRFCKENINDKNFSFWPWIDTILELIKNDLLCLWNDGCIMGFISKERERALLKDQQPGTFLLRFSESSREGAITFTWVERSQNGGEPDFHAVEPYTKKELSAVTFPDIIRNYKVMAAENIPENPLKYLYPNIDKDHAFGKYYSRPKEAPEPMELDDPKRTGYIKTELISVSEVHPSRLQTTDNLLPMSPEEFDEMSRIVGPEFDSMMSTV
As to the kind of experiment: STATs DNA-binding activity in vitro, EMSA. The note with it: Table 4; read-out: IC50 values for the inhibition of STATs DNA-binding activity in vitro, Stat1:1.

A further data set concerns the target Stat5:5. Put plainly: STATs DNA-binding activity in vitro, EMSA with MGFe probe. The note with it: Table 4; read-out: IC50 values for the inhibition of STATs DNA-binding activity in vitro, Stat5:5. Set-up: species or system mouse.

Like-named read-outs stand apart in the source and are kept apart here. Some results are limits rather than exact numbers.

With `O=C(COS(=O)(=O)c1ccc(-c2ccccc2)cc1)Nc1ccc(C(=O)O)c(O)c1` [Compound 19], on STAT3 [1], the 50% inhibitory concentration (IC50) (usually the concentration that gives 50% inhibition) was above 500 µM.

As to `O=C(CNS(=O)(=O)c1ccc(-c2ccccc2)cc1)Nc1ccc(C(=O)O)c(O)c1` [Compound 21], at STAT3 [1], the 50% inhibitory concentration (IC50) was above 500 µM.

`CCOC(=O)c1ccc(NC(=O)CC(CNS(=O)(=O)c2ccc(Oc3ccccc3)cc2)c2ccc(Cl)cc2)cc1` (centres unmarked) [Compound 37]: on STAT3 [1], the IC50 was above 500 µM.

For the molecule `CCOC(=O)c1ccc(NC(=O)CC(CNS(=O)(=O)c2ccc(C)cc2)c2ccc(Cl)cc2)cc1` (centres unmarked) [Compound 38, Ethyl 4-(3-(4-chlorophenyl)-4-(4-methylphenylsulfonamido)butanamido)benzoate], the melting point (in general, the temperature of the solid-liquid transition) lay within 187 to 189 °C.

For the molecule `CCOC(=O)c1ccc(NC(=O)CC(CNS(=O)(=O)c2ccc(Oc3ccccc3)cc2)c2ccccc2)cc1` (centres unmarked) [Compound 56, Ethyl 4-(4-(4-phenoxyphenylsulfonamido)-3-phenylbutanamido)benzoate], the melting point fell in the range of 147 to 149 °C.

Turning to `CCOC(=O)c1ccc(NC(=O)CC(CNS(=O)(=O)c2ccc(Oc3ccccc3)cc2)c2ccc3ccccc3c2)cc1` (centres unmarked) [Compound 58, Ethyl 4-(3-(naphthalen-2-yl)-4-(4-phenoxyphenylsulfonamido)butanamido)benzoate], the melting point was in the range of 141 to 143 °C.

As to `O=C(CC(CNS(=O)(=O)c1ccc(Oc2ccccc2)cc1)c1ccccc1)Nc1ccc(C(=O)O)cc1` (centres unmarked) [Compound 60, 4-(4-(4-phenoxyphenylsulfonamido)-3-phenylbutanamido)benzoic acid], the melting point lay within 187 to 189 °C. In addition, the IC50 against STAT3 [2] is above 500 µM.

`O=C(CC(CNS(=O)(=O)c1ccc(Oc2ccccc2)cc1)c1ccc2ccccc2c1)Nc1ccc(C(=O)O)cc1` (centres unmarked) [Compound 61, 4-(3-(naphthalen-2-yl)-4-(4-phenoxyphenylsulfonamido)butanamido)benzoic acid] displayed a melting point of 183 to 184 °C.

In turn, `O=C(CC(CNS(=O)(=O)c1ccc(Oc2ccccc2)cc1)c1ccc2ccccc2c1)Nc1ccc(C(=O)O)c(O)c1` (centres unmarked) [Compound 65, 2-hydroxy-4-(3-(naphthalen-2-yl)-4-(4-phenoxyphenylsulfonamido)butanamido)benzoic acid] had a melting point of 153 to 155 °C. On STAT3 [2], the IC50 was above 500 µM.

Consider `CCOC(=O)c1ccc(NC(=O)CCc2ccccc2)cc1` [Compound 70, Ethyl 4-(3-phenylpropanamido)benzoate], for which the melting point was 109 to 111 °C. Moreover, at STAT3 [2], the half-inhibitory concentration (IC50) is above 500 µM.

`O=C(CCc1ccc2ccccc2c1)Nc1ccc(C(=O)O)cc1` [Compound 71, 4-(3-(Naphthalen-2-yl)propanamido)benzoic acid] had a melting point of 255 to 257 °C. For the same molecule, the IC50 against STAT3 [2] was above 500 µM.

For `CC(C)NC(=O)c1cc(NC(=O)c2ccc(C(=O)Nc3cc(C(=O)NC(C)C)cc(C4=NCCN4)c3)cc2)cc(C2=NCCN2)c1` [NSC 101595], the IC50 is 275 µM on Stat3:3, above 300 µM on Stat1:3, above 300 µM on Stat1:1 and 288 µM on Stat5:5.

Regarding `O=C(O)c1cc(N=C2C=CC(=C(c3ccccc3)c3ccc(Nc4ccc(Cl)c(C(=O)O)c4)cc3)C=C2)ccc1Cl` [NSC 117907], the IC50 at Stat3:3 was 202 µM; on Stat1:3, 292 µM; at Stat1:1, above 300 µM; at Stat5:5, above 300 µM.

Turning to `O=C(/C=C/c1ccccc1)NC(=S)Nc1ccc(C(=O)O)cc1` [NSC 205965], the half-maximal inhibitory concentration (IC50) at Stat3:3 came to 225 µM; at Stat1:3, 256 µM; on Stat1:1 it was 253 µM; on Stat5:5, 255 µM.

As to `CCCCCCCCCCCC(=O)NC(=S)Nc1ccc(C(=O)O)cc1` [NSC 216360], the IC50 is 220 µM at Stat3:3, 290 µM at Stat1:3, above 300 µM on Stat1:1 and above 300 µM on Stat5:5.

In the case of `CCOc1cccc2c(NCCCCCCCCNc3c4ccccc4nc4c(OCC)cccc34)c3ccccc3nc12` [NSC 263435], the “inhibition of Stat3 DNA-binding activity, in words” value at Stat3:3 was “notable potent inhibitors”. For the same molecule, the IC50 on Stat3:3 is 25 µM; on Stat1:3, 40 µM; at Stat1:1, 50 µM; on Stat5:5, 25 µM.

For `N#Cc1cc([N+](=O)[O-])ccc1NC(=O)C(=O)Nn1c(=S)[nH]c2ccccc2c1=O` [NSC 645885], the half-maximal inhibitory concentration (IC50) on Stat3:3 was 245 µM; at Stat1:3, 250 µM; at Stat1:1 it was 205 µM; at Stat5:5 it was 250 µM.

Take `CC(=O)NNc1nc(C)c(C(/C=C/c2cccc([N+](=O)[O-])c2)=N/NC(=S)NN)s1` [NSC 647608]: the 50% inhibitory concentration (IC50) is 295 µM on Stat3:3, above 300 µM on Stat1:3, above 300 µM on Stat1:1 and above 300 µM on Stat5:5.
